In patent US5314999A, “Derivatives of basic polyene macrolides and their preparation” (Laboratoires Mayoly-Spindler, priority 1989, dated 1994):
≈ marks a conversion by molar mass, not a printed value. Like-named read-outs stand apart in the source and are kept apart here.

Experiments:
[1] = system: Candida albicans B 2630; assay: Growth inhibition in liquid medium (Sabouraud broth); assay type: cell-based; settings: B2630, Sabouraud broth, 28° C., 18 hours, read-out: IC 50 (growth-inhibiting concentration of 50%)
Description: (§1) A.1 : Study of the antibiotic efficiency of AmB derivatives in liquid medium against different yeasts
(§2) The antibiotic efficiency was tested by the growth inhibition method in liquid medium (Sabouraud broth) in the presence of different concentrations of the derivatives studied.
(§3) A yeast suspension was cultivated in a broth in such a manner that about 1×10^2 cell/ml were obtained.
(§4) The tubes containing the different concentrations of antifungal substance were inoculated with the same amount of yeast cells, and were then incubated at 28° C. for 18 hours with stirring. For each concentration of antifungal substance, two identical tubes were prepared.
(§5) The inhibition of fungal growth corresponding to the different concentrations was evaluated for each molecule by spectrophotometry at 620 nm and expressed in percent with respect to a reference solution without antifungal substance.

[2] = system: Candida albicans; assay: as above; assay type: cell-based; settings: Sabouraud broth, 28° C., 18 hours, read-out: IC 50 (growth-inhibiting concentration of 50%)
Description: as §1, §2, §3, §4, §5

[3] = system: Cryptoccocus neoformans; assay: as above; assay type: cell-based; settings: 18 h, Sabouraud broth, 28° C., 18 hours; read-out: IC 50 (growth-inhibiting concentration of 50%)
Description: as §1, §2, §3, §4, §5

[4] = system: Pytirosporum orbiculare; assay: as above; assay type: cell-based; settings: Sabouraud broth, 28° C., 18 hours; read-out: IC 50 (growth-inhibiting concentration of 50%)
Description: as §1, §2, §3, §4, §5

[5] = system: Saccharomyces cerevisiae; assay: as above; assay type: cell-based; settings: Saccharomyces cerevisiae, 18 h, Sabouraud broth, 28° C., 18 hours; read-out: IC 50 (growth-inhibiting concentration of 50%)
Description: as §1, §2, §3, §4, §5

[6] = system: Aspergillus flavus; assay: Diffusion method in agar-agar medium (Sabouraud agar-agar); assay type: cell-based; settings: Sabouraud agar-agar, disc diameter 1 cm, 0.1 ml
Description: (§6) A.2 : Study of the antibiotic efficiency of amphotericine B derivatives in agar-agar medium against Aspergillus
(§7) The antibiotic activity was tested by the diffusion method in agar-agar medium (Sabouraud agar-agar).
(§8) The efficiency of each molecule was determined by the size of the growth-inhibiting zone around a WHATMAN 3M paper disc impregnated with the antibiotic substance of a given concentration.
(§9) A suspension of Aspergillus spores in a broth was prepared, 0.2 ml of this suspension was used to inoculate at its surface an agar-agar medium which was solidified in such a manner that a homogeneous growth layer was obtained. After spreading, the WHATMAN 3M paper discs (diameter: 1 cm) were placed on the surface of the agar-agar, and then impregnated with 0.1 ml of the antibiotic substance at different concentrations.

[7] = system: Aspergillus fumigatus; assay: as above; assay type: cell-based; settings: Sabouraud agar-agar, disc diameter 1 cm, 0.1 ml
Description: as §6, §7, §8, §9

[8] = system: red corpuscles; assay: Toxicity on red corpuscles (lysis), mice; assay type: cell-based; settings: 37° C., 1 hour 30, 90 min, 90 min, read-out: LD 50 (dose which leads to lysis in 50% of the erythrocytes)
Description: (§10) B.1: Study of the toxicity on red corpuscles
(§11) All the solutions of the AmB derivatives according to the invention were prepared immediately before use by diluting 4 mg of substance in 100 μl of 5% glucose solution, and then, after 15 minutes protected from light, 100 μl of sterile distilled water are added, and the mixture is made up to stock solutions of 4 mg/ml with a 5% glucose solution. For comparative study of the effects of AmB, 4 mg of FUNGIZONE are diluted with 1 ml of 5% glucose.
(§12) The cells are prepared by placing 1 ml of a peripheral blood sample into a tube together with Ficollhypaque to remove the lymphocytes, and then centrifuging the mixture at 2000 rpm for 20 minutes. The remaining red corpuscles are recovered, washed once with 0.9% NaCl and then twice with 150 Mm KCl, 0.5 Mm tris-HCl, pH 7.4.
(§13) A 1.25% suspension is then prepared with 150 mM KCl solution, 0.5 mM tris-HCl, pH 7.4, and 150 μl thereof are distributed in wells along with 50 μl of each of the dilutions of the derivatives, plus a control well (5% glucose solution).
(§14) The cells are then incubated at 37° C. in a steam cabinet for 1 hour 30.
(§15) To evaluate the cell lysis, haemoglobin is essayed by removing 100 μl of the supernatant in each well and diluting the sample with 1 ml of distilled water.
(§16) The haemoglobin concentration is calculated by measuring the optical density at 540 nm and taking into account the absorption of the derivatives of amphotericine B.
(§17) LD 50 is the dose which leads to lysis in 50% of the erythrocytes (a control of 100% lysis is obtained with distilled water, and reference lysis of 0% is obtained with the 5% glucose solution).

[9] = Toxicity on nucleated cells, mice T lymph gland cells; assay type: cell-based; settings: mouse, 1 hour 30, trypan blue, read-out: LD 50 (concentration leading to a mortality of 50%)
Description: (§18) B.2: Study of the toxicity on nucleated cells
(§19) The solutions of the amphotericine B derivatives are prepared similarly to those mentioned in paragraph B.1.
(§20) The cells are prepared by placing 20 ml of blood diluted to 1/2 with 0.9% NaCl into a tube together with 10 ml of Ficoll-hypaque, and the mixture is centrifuged at 2000 rpm for 30 minutes. The cell nuclei are recovered and washed twice with PBS buffer containing 5% of foetal calf serum.
(§21) The cells are prepared by suspending 1.14×10^6 cells/ml in RPMI 1640 containing 2.5% of foetal calf serum and by filling each well with 150 μl. 50 μl of each dilution of the derivatives are added and also one control (5% glucose solution).
(§22) The cells are then incubated in a steam cabinet at a CO2 concentration of 5% for 1 hour 30 at 37° C. or at ambient temperature.
(§23) To evaluate the toxicity of the derivatives, a cell count in the presence of trypan blue is made, and the LD 50 (concentration of the derivative leading to a mortality of 50%) is calculated with respect to the control (5% glucose solution) for each concentration of each derivative.

[10] = Toxicity on nucleated cells, mice B lymph gland cells; assay type: cell-based; settings: mouse, 1 hour 30, trypan blue, read-out: LD 50 (concentration leading to a mortality of 50%)
Description: as §18, §19, §20, §21, §22, §23

[11] = Toxicity on nucleated cells, mice thymocytes; assay type: cell-based; settings: mouse, thymocytes, 1 hour 30, trypan blue, read-out: LD 50 (concentration leading to a mortality of 50%)
[12] = system: X 63 (mice lymphoma B); assay: Toxicity on nucleated cells, X 63 mice lymphoma B; assay type: cell-based; settings: 1 hour 30, trypan blue, 90 min, read-out: LD 50 (concentration leading to a mortality of 50%)
[13] = system: PBL; assay: Toxicity on nucleated cells, human PBL; assay type: cell-based; settings: human PBL, 1 hour 30, trypan blue; 90 min; read-out: LD 50 (concentration leading to a mortality of 50%)
Description: as §18, §19, §20, §21, §22, §23

[14] = system: red corpuscles; assay: Toxicity on red corpuscles (lysis), human; assay type: cell-based; settings: 37° C., 1 hour 30, 90 min, 90 min, read-out: LD 50 (dose which leads to lysis in 50% of the erythrocytes)
Description: as §10, §11, §12, §13, §14, §15, §16, §17

[15] = Toxicity on nucleated cells, human bone marrow; assay type: cell-based; settings: 1 hour 30, trypan blue, read-out: LD 50 (concentration leading to a mortality of 50%)
Description: as §18, §19, §20, §21, §22, §23

[16] = Toxicity on nucleated cells, human thymocytes; assay type: cell-based; settings: 1 hour 30, trypan blue, read-out: LD 50 (concentration leading to a mortality of 50%)
Description: as §18, §19, §20, §21, §22, §23

[17] = Toxicity on nucleated cells, DAUDI human lymphoma B; assay type: cell-based; settings: human, daudi lymphoma b cells, 1 hour 30, trypan blue, read-out: LD 50 (concentration leading to a mortality of 50%)
[18] = Solubility of the AmB derivatives; assay type: physicochemical; settings: 5% glucose solution, ambient temperature, up to saturation; read-out: solubility (soluble up to a concentration of)
Description: C.2. Solubility of the AmB derivatives according to the present invention
AmB or the derivatives obtained are dissolved at ambient temperature in a 5% glucose solution up to saturation.

[19] = Toxicity on nucleated cells, X 63 mice lymphoma B; assay type: cell-based; settings: mouse, x 63 lymphoma cells, 1 hour 30, trypan blue, read-out: LD 50 (concentration leading to a mortality of 50%)
[20] = system: DAUDI (human lymphoma B); assay: Toxicity on nucleated cells, DAUDI human lymphoma B; assay type: cell-based; settings: 1 hour 30, trypan blue, 90 min, read-out: LD 50 (concentration leading to a mortality of 50%)

SMILES: C[C@@H]1[C@H](O)[C@@H](C)/C=C/C=C/C=C/C=C/C=C/C=C/C=C/[C@H](O[C@@H]2O[C@H](C)[C@@H](O)[C@H](NCC(=O)[C@@H](O)[C@@H]3OC(c4ccccc4)OC[C@H]3O)[C@@H]2O)C[C@@H]2O[C@](O)(C[C@@H](O)C[C@@H](O)[C@H](O)CC[C@@H](O)C[C@@H](O)CC(=O)O[C@H]1C)C[C@H](O)[C@H]2C(=O)O (stereo partly drawn) [AmB 20 F, 1-deoxy-1-amino-4,6-O-benzylidene-D-fructosyl-AmB]
- IC50 [1]: 0.15 µM
- IC50 ([2]; Candida albicans, 18 h): 0.085 µM
- IC50 [3]: 0.045 µM
- IC50 [4]: 0.1 µM
- IC50 [5]: 1.1 µM
- concentration giving a growth inhibition of 1 cm around a disc in solid medium [6]: 1.5 × 10^-4 molarity
- IC (1 cm inhibition zone) ([7]; Aspergillus fumigatus, read-out: concentration giving a growth inhibition of 1 cm around a disc in solid medium): 200 µM
- HC50 [8]: 120 µM
- CC50 at 1.5 h [9]: 100 µM
- CC50 at 1.5 h [10]: 100 µM
- CC50 at 1.5 h [11]: 8 µM
- CC50 [12]: > 1000 µM
- CC50 [13]: > 1000 µM
- HC50 [14]: 200 µM
- CC50 at 1.5 h [15]: 1000 µM
- CC50 at 1.5 h [16]: > 300 µM
- CC50 at 1.5 h [17]: > 1000 µM

SMILES: C[C@@H]1[C@H](O)[C@@H](C)/C=C/C=C/C=C/C=C/C=C/C=C/C=C/[C@H](O[C@@H]2O[C@H](C)[C@@H](O)[C@H](NCC(=O)[C@@H](O)[C@@H]3OC(c4ccccc4)OC[C@H]3O)[C@@H]2O)C[C@@H]2O[C@](O)(C[C@@H](O)C[C@@H](O)[C@H](O)CC[C@@H](O)C[C@@H](O)CC(=O)O[C@H]1C)C[C@H](O)[C@H]2C(=O)O (stereo partly drawn) [AmB 20, 1-deoxy-1-amino-4,6-O-benzylidene-D-fructosyl-AmB]
- solubility [18]: 40 mg/mL (≈ 34.1 mM)

SMILES: CC(=O)NC[C@H]1OC(O)(CN[C@@H]2[C@H](O)[C@H](O[C@H]3/C=C/C=C/C=C/C=C/C=C/C=C/C=C/[C@H](C)[C@@H](O)[C@@H](C)[C@H](C)OC(=O)C[C@H](O)C[C@H](O)CC[C@@H](O)[C@H](O)C[C@H](O)C[C@]4(O)C[C@H](O)[C@@H](C(=O)O)[C@H](C3)O4)O[C@H](C)[C@H]2O)[C@@H](O)[C@@H]1O (stereo partly drawn) [AmB 23 F, 6-deoxy-6-N-acetyl-1-deoxy-1-aminofructosyl-AmB]
- IC50 [2]: 0.4 µM
- IC50 [3]: 0.15 µM
- IC50 [4]: 0.076 µM
- IC50 [5]: 1.6 µM
- IC (1 cm inhibition zone) ([6]; Aspergillus flavus, read-out: concentration giving a growth inhibition of 1 cm around a disc in solid medium): 600 µM
- concentration giving a growth inhibition of 1 cm around a disc in solid medium [7]: 2 × 10^-4 molarity
- HC50 [8]: 12 µM
- CC50 at 1.5 h [11]: 3 µM
- CC50 at 1.5 h [19]: > 1000 µM
- CC50 [13]: 80 µM
- HC50 [14]: 50 µM
- CC50 [20]: > 1000 µM
